From US20260256870A1, “SKIN COMPOSITION” (Eaderm Co., Ltd., priority 2019, published 2026) come the findings set out here.

Structures can show the parent of a compound that is named as a salt. Where two headings read alike, the source gives them in different places.

One experiment has as its system COL17A1. Nature of the experiment: COL17A1 expression in human epidermal keratinocytes by high content imaging (HCS). In kind it is cell-based. As to the method: The present inventors further searched for substances that induce or maintain the expression of COL17A1. Human epidermal keratinocytes were seeded in 384-well plates, cultured for 48 hours after addition of reagents, immunostained with an anti-COL17A1 antibody and a fluorescently labeled secondary antibody, and then the fluorescence intensity per cell was detected using a high content imaging system (HCS: High Content Screening). In addition to cell counting with DAPI, the expression level of COL17A1 was quantified.

Experiment [1] has as its system human epidermal keratinocytes. As to the kind of experiment: Colony formation assay using human epidermal keratinocytes. In kind it is cell-based. The following applies: Table 1. An excerpt: To test whether COL17A1-mediated SCD maintains clonal proliferation of epidermal stem cell clones, the present inventors used a colony formation assay, which is an in vitro assay said to be the gold standard for assessing the self-renewal ability of epidermal stem cells, including cells in the tail epidermis.

[2] abbreviates: Table 1, human epidermal keratinocytes, 48 hours after addition of reagents, fluorescence intensity per cell.
Setting [3] is: Table 3, anticancer drugs and molecularly targeted drugs.

With `CC(=N)NCc1cccc(CN)c1` [1400 W], the “COL17A1 expression level (control ratio)” value with COL17A1 (setting [2]) is “○ (one circle (0) represents a 1.0-1.2-fold maintenance)”. Also, in experiment [1], the “Colony area (control ratio)” value was “○” and the “Colony number (control ratio)” value was “○”.
Turning to `COc1ccc2c(c1)c(CC(=O)OCC(=O)O)c(C)n2C(=O)c1ccc(Cl)cc1` [Acemetacin], the “COL17A1 expression level (control ratio)” value with COL17A1 (setting [2]) is “⊚ (one double circle (⊚) represents a 1.2-fold or greater increase)”.
Regarding `N=C(N)NN` [Aminoguanidine], in the experiment on COL17A1 (setting [2]), the “COL17A1 expression level (control ratio)” value is reported as “○ (one circle (0) represents a 1.0-1.2-fold maintenance)”. Moreover, in experiment [1], the “Colony area (control ratio)” value was “○” and the “Colony number (control ratio)” value is reported as “○”.
As to `CCCCc1oc2ccccc2c1C(=O)c1cc(I)c(OCCN(CC)CC)c(I)c1` [Amiodarone Hydrochloride], the “COL17A1 expression level (control ratio)” value with COL17A1 (setting [2]) is “⊚⊚ (two double circles (⊚⊚) in the COL17A1 expression level (control ratio) represent a 2.0-fold or greater increase in the expression level)”. Moreover, in experiment [1], the “Colony area (control ratio)” value is given as “○” and the “Colony number (control ratio)” value is on record as “⊚ (one double circle (⊚) indicates maintenance of 1.0-1.2-fold)”.
As for `O=c1cc(-c2ccc(O)cc2)oc2cc(O)cc(O)c12` [Apigenin], the “COL17A1 expression level (control ratio)” value with COL17A1 (setting [2]) is recorded as “⊚⊚ (two double circles (⊚⊚) in the COL17A1 expression level (control ratio) represent a 2.0-fold or greater increase in the expression level)”. In experiment [1], the “Colony area (control ratio)” value is given as “○” and the “Colony number (control ratio)” value is listed as “○”.
With `C[C@H]1[C@@H](O)O[C@@H]2O[C@@]3(C)CC[C@H]4[C@H](C)CC[C@@H]1[C@@]24OO3` [Artenimol], in the experiment with COL17A1 (setting [2]), the “COL17A1 expression level (control ratio)” value is “⊚ (one double circle (⊚) represents a 1.2-fold or greater increase)”.
On to `C[C@H]1C[C@H]2[C@@H]3CCC4=CC(=O)C=C[C@]4(C)[C@@]3(F)[C@@H](O)C[C@]2(C)[C@@]1(O)C(=O)CO` [Bethamethazone], for which the “COL17A1 expression level (control ratio)” value with COL17A1 (setting [2]) is reported as “⊚⊚ (two double circles (⊚⊚) in the COL17A1 expression level (control ratio) represent a 2.0-fold or greater increase in the expression level)”.
On to `COc1ccc(-c2coc3cc(O)cc(O)c3c2=O)cc1` [Biochanin A], for which the “COL17A1 expression level (control ratio)” value in the experiment on COL17A1 (setting [2]) was “⊚ (one double circle (⊚) represents a 1.2-fold or greater increase)”. Further, in experiment [1], the “Colony area (control ratio)” value was “○” and the “Colony number (control ratio)” value is “○”.
For `CCCCOc1ccc(CC(=O)NO)cc1` [Bufexamac], in the experiment with COL17A1 (setting [2]), the “COL17A1 expression level (control ratio)” value is “⊚ (one double circle (⊚) represents a 1.2-fold or greater increase)”.
Consider `O=NN(CCCl)C(=O)NCCCl` [Carmustine], for which the “COL17A1 expression level (control ratio)” value in the experiment with COL17A1 (setting [3]) came to 0.94.
In the case of `Cc1ccc(-c2cc(C(F)(F)F)nn2-c2ccc(S(N)(=O)=O)cc2)cc1` [Celecoxib], in the experiment with COL17A1 (setting [2]), the “COL17A1 expression level (control ratio)” value is “⊚ (one double circle (⊚) represents a 1.2-fold or greater increase)”. For the same compound, in experiment [1], the “Colony area (control ratio)” value was “⊚ (one double circle (⊚) indicates maintenance of 1.0-1.2-fold)” and the “Colony number (control ratio)” value was “⊚ (one double circle (⊚) indicates maintenance of 1.0-1.2-fold)”.
Turning to `N.N.[Cl][Pt][Cl]` [Cisplatin], the “COL17A1 expression level (control ratio)” value in the experiment with COL17A1 (setting [3]) was found to be 0.97.
With `Clc1ccccc1C(c1ccccc1)(c1ccccc1)n1ccnc1` [Clotrimazole], in the experiment on COL17A1 (setting [2]), the “COL17A1 expression level (control ratio)” value is on record as “⊚ (one double circle (⊚) represents a 1.2-fold or greater increase)”.
As to `O=P1(N(CCCl)CCCl)NCCCO1` (stereo not drawn) [Cyclophosphamide hydrate], the “COL17A1 expression level (control ratio)” value in the experiment with COL17A1 is 0.88.
In the case of `CN(C)/N=N/c1[nH]cnc1C(N)=O` [Dacarbazine], the “COL17A1 expression level (control ratio)” value in the experiment on COL17A1 (setting [3]) is 0.94.
As for `COc1ccc(-c2cc(C(F)F)nn2-c2ccc(S(N)(=O)=O)cc2)cc1F` [Deracoxib], in the experiment on COL17A1 (setting [2]), the “COL17A1 expression level (control ratio)” value is reported as “⊚ (one double circle (⊚) represents a 1.2-fold or greater increase)”.
With `c1ccc2c(c1)[I+]c1ccccc1-2` [Diphenyleneiodonium (DPI), Diphenyleneiodonium], in the experiment with COL17A1 (setting [2]), the “COL17A1 expression level (control ratio)” value is “⊚ (one double circle (⊚) represents a 1.2-fold or greater increase)”. For the same compound, in experiment [1], the “Colony area (control ratio)” value is “○” and the “Colony number (control ratio)” value was “○”.
For the compound `CC(CCc1ccc(O)cc1)NCCc1ccc(O)c(O)c1` (stereo not drawn) [Dobutamine Hydrochloride], the “COL17A1 expression level (control ratio)” value in the experiment with COL17A1 (setting [2]) is reported as “⊚⊚ (two double circles (⊚⊚) in the COL17A1 expression level (control ratio) represent a 2.0-fold or greater increase in the expression level)”. In addition, in experiment [1], the “Colony area (control ratio)” value is given as “⊚ (one double circle (⊚) indicates maintenance of 1.0-1.2-fold)” and the “Colony number (control ratio)” value is “⊚ (one double circle (⊚) indicates maintenance of 1.0-1.2-fold)”.
As to `O=c1c2ccccc2[se]n1-c1ccccc1` [Ebselen], in the experiment with COL17A1 (setting [2]), the “COL17A1 expression level (control ratio)” value is given as “⊚ (one double circle (⊚) represents a 1.2-fold or greater increase)”. Moreover, in experiment [1], the “Colony area (control ratio)” value is given as “⊚ (one double circle (⊚) indicates maintenance of 1.0-1.2-fold)” and the “Colony number (control ratio)” value is listed as “⊚ (one double circle (⊚) indicates maintenance of 1.0-1.2-fold)”.
Turning to `C#C[C@]1(O)CC[C@H]2[C@@H]3CCc4cc(O)ccc4[C@H]3CC[C@@]21C` [Ethynyl Estsadiol], the “COL17A1 expression level (control ratio)” value in the experiment on COL17A1 (setting [2]) was “⊚⊚ (two double circles (⊚⊚) in the COL17A1 expression level (control ratio) represent a 2.0-fold or greater increase in the expression level)”. For the same compound, in experiment [1], the “Colony area (control ratio)” value is on record as “⊚ (one double circle (⊚) indicates maintenance of 1.0-1.2-fold)” and the “Colony number (control ratio)” value is reported as “⊚ (one double circle (⊚) indicates maintenance of 1.0-1.2-fold)”.
In the case of `C=C1C[C@@H]2[C@H](CC[C@]3(C)C(=O)CC[C@@H]23)[C@@]2(C)C=CC(=O)C=C12` [Exemestane], in the experiment with COL17A1 (setting [3]), the “COL17A1 expression level (control ratio)” value is reported as 0.93.
With `O=S(=O)(c1cccc2cnccc12)N1CCCNCC1` [Fasudil (HA-1077), Fasudil], the “COL17A1 expression level (control ratio)” value in the experiment with COL17A1 (setting [2]) is given as “⊚⊚ (two double circles (⊚⊚) in the COL17A1 expression level (control ratio) represent a 2.0-fold or greater increase in the expression level)”. Also, in experiment [1], the “Colony area (control ratio)” value is recorded as “⊚ (one double circle (⊚) indicates maintenance of 1.0-1.2-fold)” and the “Colony number (control ratio)” value is recorded as “⊚ (one double circle (⊚) indicates maintenance of 1.0-1.2-fold)”.
Take `Nc1nc(F)nc2c1ncn2[C@@H]1O[C@H](COP(=O)(O)O)[C@@H](O)[C@@H]1O` [Fludarabine phosphate]: the “COL17A1 expression level (control ratio)” value with COL17A1 (setting [3]) was determined as 0.90.
Regarding `Fc1ccc(C(c2ccc(F)cc2)N2CCN(C/C=C/c3ccccc3)CC2)cc1` [Flunarizine Hydrochloride], the “COL17A1 expression level (control ratio)” value with COL17A1 (setting [2]) is on record as “⊚ (one double circle (⊚) represents a 1.2-fold or greater increase)”. Moreover, in experiment [1], the “Colony area (control ratio)” value is reported as “⊚ (one double circle (⊚) indicates maintenance of 1.0-1.2-fold)” and the “Colony number (control ratio)” value is “⊚ (one double circle (⊚) indicates maintenance of 1.0-1.2-fold)”.
For `CC(=O)O.O=c1[nH]cc(F)c(=O)[nH]1` [Fluorouracil acetate], the “COL17A1 expression level (control ratio)” value in the experiment with COL17A1 (setting [3]) is given as 0.88.
As for `CN(C)c1cccc(-c2c3c(=O)n(-c4ccccc4Cl)[nH]c3cc(=O)n2C)c1` [GKT137831], in the experiment with COL17A1 (setting [2]), the “COL17A1 expression level (control ratio)” value was “○ (one circle (0) represents a 1.0-1.2-fold maintenance)”. Further, in experiment [1], the “Colony area (control ratio)” value is “○” and the “Colony number (control ratio)” value is “○”.
As for `Nc1ccn([C@@H]2O[C@H](CO)[C@@H](O)C2(F)F)c(=O)n1` [Gemcitabine], the “COL17A1 expression level (control ratio)” value with COL17A1 (setting [3]) is 0.96.
The same measure, in the same setting: to `NC(=O)NO` [Hydroxyurea] belongs 0.92; to `O=P1(NCCCl)OCCCN1CCCl` (stereo not drawn) [Ifosfamide], 0.84.
The same measure, in the same setting: under `S=c1nc[nH]c2nc[nH]c12` [Mercaptopurine] stands 0.83.
Still for that read-out and setting: under `Clc1ccc(C(c2ccccc2Cl)C(Cl)Cl)cc1` (stereo not drawn) [Mitotane] stands 0.98.
As to `O=C(O)c1cccnc1Nc1cccc(C(F)(F)F)c1` [Niflumic Acid], the “COL17A1 expression level (control ratio)” value with COL17A1 (setting [2]) was “⊚ (one double circle (⊚) represents a 1.2-fold or greater increase)”.
For the compound `COc1cccc(-c2cc(=O)c3ccccc3o2)c1N` [PD98059], the “COL17A1 expression level (control ratio)” value with COL17A1 (setting [3]) was determined as 0.84.
Still for that read-out and setting: under `COc1ccc(C[C@H](N)C(=O)N[C@H]2[C@@H](O)[C@H](n3cnc4c(N(C)C)ncnc43)O[C@@H]2CO)cc1` [Puromycin hydrochloride] stands 0.85.
Still for that read-out and setting: to `CC/C(=C(\c1ccccc1)c1ccc(OCCN(C)C)cc1)c1ccccc1` [Tamoxifen citrate] belongs 0.78.
For `O=c1[nH]c(=O)n(C2CCCO2)cc1F` (stereo not drawn) [Tegafur], the “COL17A1 expression level (control ratio)” value with COL17A1 (setting [3]) came out at 0.90.
`Cn1nnc2c(C(N)=O)ncn2c1=O` [Temozolomide]: the “COL17A1 expression level (control ratio)” value in the experiment on COL17A1 (setting [3]) is reported as 0.98.
For `CN1C(C(=O)Nc2ccccn2)=C(O)c2sccc2S1(=O)=O` [Tenoxicam], the “COL17A1 expression level (control ratio)” value with COL17A1 (setting [2]) was “⊚ (one double circle (⊚) represents a 1.2-fold or greater increase)”.
Regarding `CCC(=O)O[C@H]1CC[C@H]2[C@@H]3CCC4=CC(=O)CC[C@]4(C)[C@H]3CC[C@]12C` [Testosterone propionate], in the experiment with COL17A1 (setting [3]), the “COL17A1 expression level (control ratio)” value is reported as 0.84.
In the case of `Cc1c(Cl)cccc1Nc1ccccc1C(=O)O` [Tolfenamic Acid], in the experiment with COL17A1 (setting [2]), the “COL17A1 expression level (control ratio)” value was “⊚ (one double circle (⊚) represents a 1.2-fold or greater increase)”.
On the same count and under the same terms, under `C[C@]12C=CC(=O)C=C1CC[C@H]1[C@@H]3C[C@@H](O)[C@](O)(C(=O)CO)[C@@]3(C)C[C@H](O)[C@@]12F` [Triamcinolone] stands “⊚ (one double circle (⊚) represents a 1.2-fold or greater increase)”.
For the compound Monensin Sodium, the “COL17A1 expression level (control ratio)” value in the experiment with COL17A1 (setting [2]) is listed as “⊚ (one double circle (⊚) represents a 1.2-fold or greater increase)”.
On to Toremiphene citrate, for which the “COL17A1 expression level (control ratio)” value with COL17A1 (setting [3]) is listed as 0.94.
